Experimental data from ChEMBL document CHEMBL1201862, “PubChem BioAssay data set” (2004).
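Dose response: 5 concentrations. Exposure: 48 h. Format: 96-well plates. Endpoint: linear interpolation; highest concentration if not reached. GI50 is the concentration that inhibits growth by half.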 Active and inactive are the calls of the source. Cut-off read from the data, not from the text of the source: active = GI50 up to about 1.1 µM and inactive = higher.

How the values were obtained:
Test in all cases: NCI anticancer screen, dose series, 48 h
A498 = test system: A498
ACHN = test system: ACHN
DU-145 = test system: DU-145
HCT-116 = test system: HCT-116
HOP-92 = test system: HOP-92
K562 = test system: K562
M14 = test system: M14
MCF7 = test system: MCF7
MDA-N = test system: MDA-N
MOLT-4 = test system: MOLT-4
Malme-3M = test system: Malme-3M
RXF 393 = test system: RXF 393
SF-295 = test system: SF-295
SF-539 = test system: SF-539
SNB-19 = test system: SNB-19
TK-10 = test system: TK-10
UO-31 = test system: UO-31
NCI-H522 = test system: NCI-H522
SK-MEL-2 = test system: SK-MEL-2

Structure (SMILES)	GI50 (A498)	GI50 (ACHN)	GI50 (DU-145)	GI50 (HCT-116)	GI50 (HOP-92)	GI50 (K562)	GI50 (M14)	GI50 (MCF7)	GI50 (MDA-N)	GI50 (MOLT-4)	GI50 (Malme-3M)	GI50 (RXF 393)	GI50 (SF-295)	GI50 (SF-539)	GI50 (SNB-19)	GI50 (TK-10)	GI50 (UO-31)	GI50 (NCI-H522)	GI50 (SK-MEL-2)
CC(C)(C)c1ccc2c(c1)C(=O)c1ccccc1C2=O	41.3 µM (inactive)	37.9 µM (inactive)	> 100 µM (inactive)	76 µM (inactive)	15.5 µM (inactive)	58.1 µM (inactive)	> 100 µM (inactive)	20.6 µM (inactive)	37.5 µM (inactive)	24.6 µM (inactive)	> 100 µM (inactive)	26.1 µM (inactive)	56.4 µM (inactive)	> 100 µM (inactive)	> 100 µM (inactive)	86.3 µM (inactive)	> 100 µM (inactive)		
Nc1nc(SCC(=O)c2ccc(Br)cc2)c2nc[nH]c2n1	51.6 µM (inactive)	34 µM (inactive)	27.5 µM (inactive)	31.2 µM (inactive)	17.3 µM (inactive)	18.1 µM (inactive)	40.5 µM (inactive)	56.4 µM (inactive)	34.8 µM (inactive)		29.4 µM (inactive)	41.9 µM (inactive)	34.8 µM (inactive)		> 100 µM (inactive)	20.8 µM (inactive)	27.4 µM (inactive)	17.8 µM (inactive)	32.1 µM (inactive)
O=S(=O)(O)C(c1ccccc1)C(O)c1ccccc1 (stereo unspecified)	> 100 µM (inactive)	> 100 µM (inactive)	> 100 µM (inactive)	> 100 µM (inactive)	> 100 µM (inactive)	> 100 µM (inactive)	> 100 µM (inactive)	> 100 µM (inactive)	> 100 µM (inactive)		> 100 µM (inactive)	> 100 µM (inactive)	> 100 µM (inactive)		> 100 µM (inactive)	> 100 µM (inactive)	> 100 µM (inactive)	> 100 µM (inactive)	> 100 µM (inactive)
CC(=O)O[C@@H](c1nccn1Cc1ccccc1)[C@H]1OC(C)(C)O[C@@H]1[C@H]1COC(C)(C)O1	> 100 µM (inactive)	> 100 µM (inactive)	> 100 µM (inactive)	> 100 µM (inactive)	> 100 µM (inactive)	> 100 µM (inactive)		> 100 µM (inactive)	> 100 µM (inactive)	> 100 µM (inactive)	> 100 µM (inactive)	> 100 µM (inactive)	> 100 µM (inactive)	> 100 µM (inactive)		> 100 µM (inactive)	> 100 µM (inactive)	> 100 µM (inactive)	> 100 µM (inactive)
O=C(/C=C/c1csc(-c2ccccc2)n1)NCc1ccc(C(=O)NCCc2ccccc2)cc1	19.8 µM (inactive)	19.3 µM (inactive)	88.5 µM (inactive)	26.9 µM (inactive)	6.85 µM (inactive)	> 100 µM (inactive)	39.8 µM (inactive)	72.3 µM (inactive)	> 100 µM (inactive)	> 100 µM (inactive)	24.3 µM (inactive)	2.7 µM (inactive)	9.73 µM (inactive)		11.4 µM (inactive)	11.7 µM (inactive)	48.1 µM (inactive)	34.6 µM (inactive)	32 µM (inactive)
CN1CCN(Cn2nc(COc3ccccc3Cl)n(/N=C/c3ccc(-c4ccc(Cl)cc4Cl)o3)c2=S)CC1	19.1 µM (inactive)		20 µM (inactive)	18.5 µM (inactive)	14.3 µM (inactive)	21.3 µM (inactive)	28.8 µM (inactive)	19.6 µM (inactive)	23.5 µM (inactive)	24.5 µM (inactive)		17.3 µM (inactive)	27.4 µM (inactive)	27 µM (inactive)		23.9 µM (inactive)	33.2 µM (inactive)	26.2 µM (inactive)	22.4 µM (inactive)
CC1(CCc2ccccc2)CC1(Br)Br (stereo unspecified)	39.6 µM (inactive)	26.3 µM (inactive)	57.9 µM (inactive)	30.3 µM (inactive)	13 µM (inactive)	19.5 µM (inactive)	44.8 µM (inactive)	38.8 µM (inactive)	32.7 µM (inactive)	23.4 µM (inactive)	22.5 µM (inactive)	20.7 µM (inactive)	25.4 µM (inactive)	> 100 µM (inactive)	> 100 µM (inactive)		39.4 µM (inactive)	23 µM (inactive)	17.8 µM (inactive)
O=C1Nc2ccccc2/C1=N/NC(=S)NCc1ccccn1	2.25 µM (inactive)	0.2 µM (active)	0.698 µM (active)	< 0.01 µM (active)	1.11 µM (active)	< 0.01 µM (active)	0.312 µM (active)	< 0.01 µM (active)	0.975 µM (active)	< 0.01 µM (active)	2.29 µM (inactive)		0.507 µM (active)	0.366 µM (active)	0.678 µM (active)	2.52 µM (inactive)	0.373 µM (active)	0.17 µM (active)	2.9 µM (inactive)
O=C(/C(=N\Nc1ccc([N+](=O)[O-])cc1[N+](=O)[O-])NC12CC3CC(CC(C3)C1)C2)C(Br)C(=O)c1ccccc1 (stereo unspecified)	2.71 µM (inactive)	3.18 µM (inactive)	4.48 µM (inactive)	3.05 µM (inactive)	2.79 µM (inactive)	2.8 µM (inactive)	2.86 µM (inactive)	3.86 µM (inactive)	4.69 µM (inactive)	3.52 µM (inactive)	3.13 µM (inactive)	2.78 µM (inactive)	3.99 µM (inactive)	3.31 µM (inactive)	3.97 µM (inactive)	5.66 µM (inactive)	6.12 µM (inactive)		2.12 µM (inactive)
O=C(NCCCCCCO)c1cccc2cc3ccccc3nc12	> 10 µM (inactive)	16.4 µM (inactive)	17.7 µM (inactive)	17.2 µM (inactive)	25.8 µM (inactive)	32.4 µM (inactive)		20.4 µM (inactive)	3.61 µM (inactive)	16.7 µM (inactive)		17.2 µM (inactive)	16.7 µM (inactive)	16.7 µM (inactive)	15.8 µM (inactive)	16.6 µM (inactive)		13.3 µM (inactive)	16.1 µM (inactive)
C=CCN1C(=O)/C(=C\c2cc(C(C)(C)C)c(O)c(C(C)(C)C)c2)NC1=S	25.2 µM (inactive)	26.5 µM (inactive)	21.2 µM (inactive)	12.7 µM (inactive)	28.9 µM (inactive)	19.9 µM (inactive)	26 µM (inactive)	20.7 µM (inactive)	27.4 µM (inactive)	30.7 µM (inactive)	7.19 µM (inactive)		21.2 µM (inactive)	39.5 µM (inactive)	41.9 µM (inactive)	25 µM (inactive)	28.8 µM (inactive)	12.4 µM (inactive)	14.1 µM (inactive)
CC1=NN(c2nc(N)nc(-c3sccc3N)n2)C(C)(C)C1	> 100 µM (inactive)	> 100 µM (inactive)	> 100 µM (inactive)	96.4 µM (inactive)	> 100 µM (inactive)	44.1 µM (inactive)	23.9 µM (inactive)	78 µM (inactive)	75.9 µM (inactive)	83.9 µM (inactive)	47.3 µM (inactive)		92.5 µM (inactive)	> 100 µM (inactive)	> 100 µM (inactive)	> 100 µM (inactive)	> 100 µM (inactive)	32.7 µM (inactive)	
O=C1CC(CC(O)C(O)C(O)CO)CC(=O)N1 (stereo unspecified)	> 100 µM (inactive)	> 100 µM (inactive)	> 100 µM (inactive)	> 100 µM (inactive)	> 100 µM (inactive)	> 100 µM (inactive)	> 100 µM (inactive)	> 100 µM (inactive)	> 100 µM (inactive)	> 100 µM (inactive)	> 100 µM (inactive)	> 100 µM (inactive)	> 100 µM (inactive)	> 100 µM (inactive)			> 100 µM (inactive)	> 100 µM (inactive)	
Cc1coc2c1CC1OC1(C)CCC1OC1(C)C2 (stereo unspecified)	> 100 µM (inactive)	> 100 µM (inactive)	> 100 µM (inactive)	> 100 µM (inactive)	> 100 µM (inactive)	> 100 µM (inactive)	> 100 µM (inactive)	> 100 µM (inactive)	> 100 µM (inactive)	> 100 µM (inactive)			> 100 µM (inactive)	> 100 µM (inactive)	> 100 µM (inactive)	> 100 µM (inactive)	> 100 µM (inactive)	> 100 µM (inactive)	> 100 µM (inactive)
COc1cc(Nc2nnc3n2S(=O)(=O)c2cc(C)c(Cl)cc2S3)cc(OC)c1	19.1 µM (inactive)	5.21 µM (inactive)	10.7 µM (inactive)	14 µM (inactive)	5.26 µM (inactive)	13.2 µM (inactive)	59.3 µM (inactive)	13.6 µM (inactive)	4.68 µM (inactive)	4.29 µM (inactive)	2.17 µM (inactive)	10.5 µM (inactive)	21.5 µM (inactive)	2.12 µM (inactive)	13.3 µM (inactive)	31.4 µM (inactive)	11.6 µM (inactive)	2.61 µM (inactive)	
COc1cc(C2SCCCCCCCCCCSC(c3ccc(O)c(OC)c3)SCCCCCCCCCCS2)ccc1O (stereo unspecified)	> 100 µM (inactive)	> 100 µM (inactive)	> 100 µM (inactive)	> 100 µM (inactive)	> 100 µM (inactive)	> 100 µM (inactive)	> 100 µM (inactive)	> 100 µM (inactive)	> 100 µM (inactive)	26.3 µM (inactive)	58.1 µM (inactive)	> 100 µM (inactive)	> 100 µM (inactive)		> 100 µM (inactive)	> 100 µM (inactive)	> 100 µM (inactive)	> 100 µM (inactive)	> 100 µM (inactive)
